Article PMC10261210 (Cancer Chemotherapy and Pharmacology, 2023)
Entries after “also recorded” stand apart in the source; their conditions may differ. Like-named read-outs stand apart in the source and are kept apart here.

What was measured:
[1] = plasma pharmacokinetics (LC–MS/MS, noncompartmental analysis); type: in vivo, human; conditions: for Tmax / AUC / Cmax / half-life: human, plasma; for Cmax: read-out: Cmax, geometric mean (%CV); for half-life: read-out: t1/2z, mean (range) (converted)
Protocol: In addition, for patients on Q2D schedules, predose or trough samples were collected on days 9 and 15 (Q2D dosing) or days 8 and 15 (QW dosing) to evaluate time to steady state. […] Plasma concentration–time analysis was performed using noncompartmental analysis. The plasma PK parameters were estimated using a validated version of Phoenix WinNonlin software (Version 6.3 or above, Pharsight Corporation, Raleigh, NC). Terminal half-life was calculated based on the equation: t1/2 = ln2/kel (kel = elimination rate constant determined by linear regression analysis of selected time points in the apparent terminal phase of the log plasma concentration versus time curve).

BRAF V600E mutant = system: BRAF V600E mutant; design: method as in doi:10.1016/S1359-6349(10)71810-3; conditions: preclinical studies; cited from earlier work
[2] = system: neural progenitor cells transformed with KIAA1549-BRAF fusion protein; design: method as in PMID 28082416; conditions: cited from earlier work
[3] = system: recurrent/progressive low-grade gliomas harboring MAPK pathway alterations; conditions: cited from earlier work
[4] = system: relapsed or progressive LGGs harboring BRAF alterations; design: method as in ref 33 = [33]; 33. Kilburn L, Landi D, Leary S, Ziegler DS, Baxter P, Franson A, McCowage G, Waanders AJ, Van der Lugt J, Yalon Oren M, Gerber NU, Gottardo NG, Khuong-Quang D-A, Nysom K, Bailey S, Hernáiz Driever P; conditions: interim analysis, first 25 enrolled patients with ≥ 6 months of follow-up, QW monotherapy; cited from earlier work
[5] = po, 400 mg, 400 mg QW oral, cycle 1 day 22, plasma, n 3
[6] = po, 600 mg, 600 mg QW oral, cycle 1 day 22, plasma, n 20
[7] = po, 800 mg, 800 mg QW oral, cycle 1 day 22, plasma, n 3
[8] = dose-escalation part, QW monotherapy, 8 patients with tumor RAF gene fusions

C[C@@H](NC(=O)c1ncnc(N)c1Cl)c1ncc(C(=O)Nc2cc(C(F)(F)F)c(Cl)cn2)s1 [tovorafenib]
dose dependence of steady-state AUC48 ([1]; 20 mg to 280 mg Q2D): approximately dose-proportional
dose dependence of steady-state exposure (AUC168) ([1]; 400 mg to 800 mg QW): approximately dose-proportional
power model coefficient, dose versus steady-state AUC168 ([1]; 400 mg to 800 mg QW, cycle 1 day 22, 95% CI 0.55–2.04): 1.30
geometric mean Rauc ([1]; Q2D dosing regimen at 200 mg): ~ 2.55
Tmax ([1]; oral, post-dose, Q2D and QW, read-out: overall median Tmax): 2 to 4 h
AUC ([1]; po, 20 mg, 20 mg Q2D oral, cycle 1 day 21, plasma, n 3, read-out: AUC48, geometric mean (%CV)): 10.4 µg·h/mL
Cmax ([1]; po, 20 mg, 20 mg Q2D oral, cycle 1 day 21, plasma, n 3): 302 ng/mL
Tmax ([1]; po, 20 mg, 20 mg Q2D oral, cycle 1 day 21, plasma, n 3, read-out: tmax, median (min, max)): 2 h
AUC ([1]; po, 40 mg, 40 mg Q2D oral, cycle 1 day 21, plasma, n 2, read-out: AUC48, geometric mean (%CV)): 20.9 µg·h/mL
Cmax ([1]; po, 40 mg, 40 mg Q2D oral, cycle 1 day 21, plasma, n 2): 760 ng/mL
Tmax ([1]; po, 40 mg, 40 mg Q2D oral, cycle 1 day 21, plasma, n 2, read-out: tmax, median (min, max)): 3 h
AUC ([1]; po, 80 mg, 80 mg Q2D oral, cycle 1 day 21, plasma, n 3, read-out: AUC48, geometric mean (%CV)): 42.7 µg·h/mL
Cmax ([1]; po, 80 mg, 80 mg Q2D oral, cycle 1 day 21, plasma, n 3): 2040 ng/mL
Tmax ([1]; po, 80 mg, 80 mg Q2D oral, cycle 1 day 21, plasma, n 3, read-out: tmax, median (min, max)): 4 h
AUC ([1]; po, 135 mg, 135 mg Q2D oral, cycle 1 day 21, plasma, n 3, read-out: AUC48, geometric mean (%CV)): 96.8 µg·h/mL
Cmax ([1]; po, 135 mg, 135 mg Q2D oral, cycle 1 day 21, plasma, n 3): 3320 ng/mL
Tmax ([1]; po, 135 mg, 135 mg Q2D oral, cycle 1 day 21, plasma, n 3, read-out: tmax, median (min, max)): 2 h
AUC ([1]; po, 200 mg, 200 mg (n=7) Q2D oral, cycle 1 day 21, plasma, n 6, read-out: AUC48, geometric mean (%CV)): 118 µg·h/mL
Cmax ([1]; po, 200 mg, 200 mg (n=7) Q2D oral, cycle 1 day 21, plasma, n 6): 3810 ng/mL
Tmax ([1]; po, 200 mg, 200 mg (n=7) Q2D oral, cycle 1 day 21, plasma, n 6, read-out: tmax, median (min, max)): 3 h
AUC ([1]; po, 200 mg, 200 mg (n=23; PK expansion cohort and 28-day cycle cohort) Q2D oral, cycle 1 day 21, plasma, n 14, read-out: AUC48, geometric mean (%CV)): 127 µg·h/mL
Cmax ([1]; po, 200 mg, 200 mg (n=23; PK expansion cohort and 28-day cycle cohort) Q2D oral, cycle 1 day 21, plasma, n 14): 3680 ng/mL
Tmax ([1]; po, 200 mg, 200 mg (n=23; PK expansion cohort and 28-day cycle cohort) Q2D oral, cycle 1 day 21, plasma, n 14, read-out: tmax, median (min, max)): 2 h
AUC ([1]; po, 280 mg, 280 mg Q2D oral, cycle 1 day 21, plasma, n 4, read-out: AUC48, geometric mean (%CV)): 155 µg·h/mL
Cmax ([1]; po, 280 mg, 280 mg Q2D oral, cycle 1 day 21, plasma, n 4): 4060 ng/mL
Tmax ([1]; po, 280 mg, 280 mg Q2D oral, cycle 1 day 21, plasma, n 4, read-out: tmax, median (min, max)): 3 h
AUC ([1]; po, 400 mg, 400 mg QW oral, cycle 1 day 22, plasma, n 3, read-out: AUC168, geometric mean (%CV)): 193 µg·h/mL
Cmax [1, 5]: 3140 ng/mL
Tmax ([1]; po, 400 mg, 400 mg QW oral, cycle 1 day 22, plasma, n 3, read-out: Tmax, median (min, max)): 3 h
half-life [1, 5]: 52 h
AUC ([1]; po, 600 mg, 600 mg QW oral, cycle 1 day 22, plasma, n 20, read-out: AUC168, geometric mean (%CV)): 330 µg·h/mL
Cmax [1, 6]: 5650 ng/mL
Tmax ([1]; po, 600 mg, 600 mg QW oral, cycle 1 day 22, plasma, n 20, read-out: Tmax, median (min, max)): 3 h
half-life [1, 6]: ~70 h
AUC ([1]; po, 800 mg, 800 mg QW oral, cycle 1 day 22, plasma, n 3, read-out: AUC168, geometric mean (%CV)): 473 µg·h/mL
Cmax [1, 7]: 6460 ng/mL
Tmax ([1]; po, 800 mg, 800 mg QW oral, cycle 1 day 22, plasma, n 3, read-out: Tmax, median (min, max)): 4 h
half-life [1, 7]: 68.1 h
accumulation in systemic circulation (day 22 AUC168 over day 1 AUC168) ([1]; repeated QW dosing, 400–800 mg): minimal accumulation; also recorded: Minimal to no apparent accumulation
IC50 (BRAF V600E mutant): 7.1 nM
paradoxical activation of ERK signaling [2]: not to trigger paradoxical activation of ERK signaling
complete responses [3, 8]: 2 patients
partial responses [3, 8]: 3 patients
prolonged stable disease [3, 8]: two
patients with clinically meaningful activity ([3]; phase 1b part, 24 of 35 patients with MAPK pathway-altered cancers): 69%
complete responses ([3]; phase 1b part, 35 patients): 2
partial responses ([3]; phase 1b part, 35 patients): 7
stable diseases ([3]; phase 1b part, 35 patients): 15
clinical benefit rate [4]: 91%
overall response rate [4]: 64%
